Assay results taken from PubChem BioAssay (NCI).
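Interpolation was linear, between the two tested concentrations surrounding the appropriate level; five concentrations were tested over 48 hours in 96-well plates. GI50: concentration for 50% inhibition of growth. At the TGI there is no net growth.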

Assays:
Experiment in all cases: NCI anticancer screen, dose series, 48 h
[1] = test system: HCT-116 colon
[2] = test system: OVCAR-5 ovarian
[3] = test system: HT29 colon
[4] = test system: RPMI-8226 leukemia
[5] = test system: HCC-2998 colon
[6] = test system: NCI-H522 lung

Compound | GI50 [1] [µM] | TGI [1] [µM] | GI50 [2] [µM] | TGI [2] [µM] | GI50 [3] [µM] | TGI [3] [µM] | GI50 [4] [µM] | TGI [4] [µM] | GI50 [5] [µM] | TGI [5] [µM] | TGI [6] [µM]
CCC[CH2][Sn]([Cl])([Cl])[CH2]CCC | 1.17 | 2.61 | 1.51 | 2.89 | 1.44 | 2.81 | 0.198 | 0.723 | 1.1 | 2.32 | 
COc1ccc(N=NC(C(=O)c2ccccc2)C(=O)c2ccccc2)cc1 |  | 38.8 |  | 87.1 |  | 74 |  | 53.7 |  | 91.1 | 45
CCOC(=O)C(=O)Nc1ccccc1C |  | > 100 |  | > 100 |  |  |  | > 100 |  | > 100 | > 100
CC1=C(C(=O)CC(=O)C(=O)Nc2cc(C)ccc2C)Sc2ccccc2N1 |  | > 100 |  | > 100 |  | > 100 |  | > 100 |  | > 100 | > 100
O=C(CCC(=O)Nc1ccc(Cl)c(Cl)c1)CC(=O)c1ccc(Br)cc1 |  | > 100 |  | > 100 |  | > 100 |  | > 100 |  |  | > 100
CCNC(=O)COc1ccc(Br)cc1Br |  | > 100 |  | > 100 |  | > 100 |  | > 100 |  | > 100 | > 100
CC1/C=C/[C@@]2(C)CCC(C(C)(C)O)C2C(O)C[C@](C)(O)/C=C/C1 (stereo partly drawn) |  | > 100 |  | > 100 |  | > 100 |  | > 100 |  | > 100 | 
CC(=O)N/N=C1\CC(C)(C)C2CCC1C2 (stereo not drawn) |  | > 100 |  | > 100 |  |  |  | > 100 |  |  | > 100
C=C(CC(NC(=O)c1ccc(C(CC)Cc2cnc3nc(N)nc(N)c3n2)cc1)C(=O)O)C(=O)O (stereo not drawn) |  | > 100 |  |  |  | > 100 |  | > 100 | 0.0265 |  | 
COc1ccc(NC(=O)/C(=C/c2ccccc2)C(C)=O)cc1 |  |  |  | 34.1 |  | 28.5 |  | 24.8 |  | 33.5 | 4.6
COc1ccc(NC(=O)CC2SC(=Nc3ccccc3C)NC2=O)c([N+](=O)[O-])c1 (stereo not drawn) |  | > 100 |  | > 100 |  | > 100 |  | > 100 |  | > 100 | 80.5
CCC1CC2C(=O)N(c3ccccc3)C(=O)C2c2[nH]c3ccccc3c21 (stereo not drawn) |  |  |  | > 100 |  | > 100 |  | > 100 |  | > 100 | 
N/N=C1\C(=O)N(C2CCCCCC2)C(=O)C1C(=O)NC1CCCCCC1 (stereo not drawn) |  |  |  | > 100 |  | > 100 |  |  |  | 43.9 | 60
CCC(=O)c1c(NOC2OCC(OC(C)=O)C(OC(C)=O)C2OC(C)=O)nc(OC)n(C)c1=O (stereo not drawn) |  | > 100 |  | > 100 |  | > 100 |  | > 100 |  | > 100 | 
COc1ccc(OC)c(NC(=O)CCC/C(CC(=O)c2ccc(O)c(OC)c2)=N\Nc2nnc(C)n2N)c1 |  |  |  | > 100 |  | > 100 |  | > 100 |  | > 100 | > 100
COC12CCC(=O)C=C1c1ccccc1N2C(C)=O (stereo not drawn) |  | > 100 |  |  |  | > 100 |  | > 100 |  | > 100 | 
CC1=CC(=O)CC2(C)CC[C@@H]3C[C@]12OC3(C)C (stereo partly drawn) |  | > 100 |  | > 100 |  | > 100 |  | > 100 |  | > 100 | > 100
CC1=Nc2c(ccc3c2C(=O)c2ccccc2C3=O)NC(c2cccc3c2CCC3)C1 (stereo not drawn) |  | > 100 |  | > 100 |  | > 100 |  | > 100 |  | > 100 | > 100
CC(C)(C)c1cc(C(O)(C(F)(F)F)C(F)(F)F)c2c(c1)C(C(F)(F)F)(C(F)(F)F)OC(C)(C(C)(C)C)N2 (stereo not drawn) |  | 13.4 |  | > 100 |  | 22.7 |  | 9.25 |  | 93.6 | 5.24
N#Cc1ccccc1C(Cl)(Cl)c1cnccn1 |  |  |  | > 100 |  | > 100 |  |  |  | > 100 | 38.4
C/C=C(/I)CBr |  | 27.9 |  |  |  |  |  | 39.2 |  | 29.4 | 4.35
Cc1ccc(NC(=O)CCc2nc(N)nc(N)c2-c2ccccc2)cc1C |  | > 100 |  | > 100 |  | > 100 |  | > 100 |  | > 100 | > 100
O=c1/c(=C/c2ccccc2[N+](=O)[O-])sc2nc3ccccc3n12 |  | > 46.4 |  | > 46.4 |  | > 46.4 |  | 20.1 |  | > 46.4 | > 100
CC1=C[C@H]2c3c([nH]c4ccccc34)C(c3c[nH]c4ccccc34)[C@H]2CC1 (stereo partly drawn) |  | 11.9 |  |  |  | 11.5 |  | 12 |  | 12.4 | 18.5
COC(=O)/C=C(C)/C=C/C1OC(C)OCC1O (stereo not drawn) |  |  |  | > 100 |  | > 100 |  | > 100 |  | > 100 | > 100
CCOC(=O)C1=C(Nc2ccc(Cl)cc2Cl)OCC1=O |  | > 100 |  | > 100 |  | > 100 |  | > 100 |  | > 100 | > 100
